The record followed here is patent US9708318B2, “Bicyclic heterocycles as FGFR4 inhibitors” (Incyte Corporation, priority 2015, dated 2017).

Where two headings read alike, the source gives them in different places. A value given as a limit tells only on which side of the number the result lay.

The target in one assay is FGFR4 (Homo sapiens (Human), UniProt P22455). The experiment in a line: FGFR Enzymatic Assay (FRET peptide phosphorylation), FGFR4. Type of assay: biochemical. The following applies: for FGFR1/FGFR4 IC50 ratio / FGFR2/FGFR4 IC50 ratio / FGFR3/FGFR4 IC50 ratio: FGFR4 selectivity. As to the method: (§1) The inhibitor potency of the exemplified compounds was measured in an enzyme assay that measures peptide phosphorylation using FRET measurements to detect product formation. Inhibitors were serially diluted in DMSO and a volume of 0.5 μL was transferred to the wells of a 384-well plate.
(§2) The enzymes were purchased from Millipore or Invitrogen.
(§3) GraphPad prism3 was used to analyze the data.

The target in another assay is FGFR3 enzyme (Homo sapiens (Human), UniProt P22607). The assay can be described thus: FGFR Enzymatic Assay (FRET peptide phosphorylation), FGFR3. Type of assay: biochemical. The following applies: for IC50: read-out: FGFR3 IC50; for FGFR1/FGFR3 IC50 ratio / FGFR4/FGFR3 IC50 ratio: FGFR3 selectivity. The procedure:
as §1, §3

A further assay addresses FGFR1 (Homo sapiens (Human), UniProt P11362). The assay can be described thus: FGFR Enzymatic Assay (FRET peptide phosphorylation), FGFR1.
The target of another assay is FGFR2 (Homo sapiens (Human), UniProt P21802). The assay can be described thus: FGFR Enzymatic Assay (FRET peptide phosphorylation), FGFR2. The assay is classed as biochemical. As to the method: as §1, §2, §3
The mark [1] stands for this setting: read-out: FGFR1 IC50, pre-incubated for 4 hours.
Setting [2] is: FGFR1 IC50 (nM), pre-incubated for 4 hours.
[3] abbreviates: pre-incubated for 5 to 10 minutes.

Sequence of FGFR1 (P11362 22-822): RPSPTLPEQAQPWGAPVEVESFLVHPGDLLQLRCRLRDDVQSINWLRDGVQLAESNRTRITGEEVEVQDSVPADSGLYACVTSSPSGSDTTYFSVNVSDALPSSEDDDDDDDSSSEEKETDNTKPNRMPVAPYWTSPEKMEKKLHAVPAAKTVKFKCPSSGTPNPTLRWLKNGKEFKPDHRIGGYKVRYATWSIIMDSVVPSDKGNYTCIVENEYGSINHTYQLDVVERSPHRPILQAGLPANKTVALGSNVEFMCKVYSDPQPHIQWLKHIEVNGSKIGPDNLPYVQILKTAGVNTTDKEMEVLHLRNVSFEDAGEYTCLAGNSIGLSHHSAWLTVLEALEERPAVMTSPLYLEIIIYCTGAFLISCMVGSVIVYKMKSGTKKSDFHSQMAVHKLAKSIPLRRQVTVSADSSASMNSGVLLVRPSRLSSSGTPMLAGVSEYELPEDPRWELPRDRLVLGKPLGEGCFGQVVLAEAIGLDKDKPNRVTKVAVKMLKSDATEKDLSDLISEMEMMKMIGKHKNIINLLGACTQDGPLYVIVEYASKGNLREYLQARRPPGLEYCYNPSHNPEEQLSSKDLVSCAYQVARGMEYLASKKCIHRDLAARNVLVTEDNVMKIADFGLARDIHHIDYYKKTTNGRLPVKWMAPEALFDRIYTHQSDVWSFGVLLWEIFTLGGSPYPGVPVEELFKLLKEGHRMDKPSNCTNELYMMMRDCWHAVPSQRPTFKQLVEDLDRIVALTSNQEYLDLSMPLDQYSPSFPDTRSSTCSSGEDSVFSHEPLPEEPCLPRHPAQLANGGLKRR
Sequence of FGFR4 (P22455 22-802): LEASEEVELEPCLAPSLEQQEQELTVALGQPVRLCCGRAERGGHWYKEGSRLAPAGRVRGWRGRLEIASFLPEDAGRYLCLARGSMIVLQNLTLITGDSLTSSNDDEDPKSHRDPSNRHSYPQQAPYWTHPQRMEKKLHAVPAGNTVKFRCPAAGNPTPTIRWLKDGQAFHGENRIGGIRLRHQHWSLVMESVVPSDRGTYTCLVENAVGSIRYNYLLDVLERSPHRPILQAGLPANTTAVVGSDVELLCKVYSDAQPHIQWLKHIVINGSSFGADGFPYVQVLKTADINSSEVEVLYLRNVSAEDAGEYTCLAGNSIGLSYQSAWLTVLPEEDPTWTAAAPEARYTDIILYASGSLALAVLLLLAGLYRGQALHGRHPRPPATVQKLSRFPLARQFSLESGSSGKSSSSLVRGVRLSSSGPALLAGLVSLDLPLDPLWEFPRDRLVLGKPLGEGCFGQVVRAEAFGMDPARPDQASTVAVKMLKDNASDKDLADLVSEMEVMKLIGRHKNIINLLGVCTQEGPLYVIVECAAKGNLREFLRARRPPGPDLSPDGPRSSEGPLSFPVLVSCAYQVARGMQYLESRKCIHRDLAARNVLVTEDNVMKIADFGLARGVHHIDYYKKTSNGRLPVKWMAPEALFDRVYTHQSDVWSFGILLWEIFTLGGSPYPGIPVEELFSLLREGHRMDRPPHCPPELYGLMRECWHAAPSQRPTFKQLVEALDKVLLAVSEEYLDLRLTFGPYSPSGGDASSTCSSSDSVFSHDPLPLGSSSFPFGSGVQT
Sequence of FGFR2 (P21802 22-821): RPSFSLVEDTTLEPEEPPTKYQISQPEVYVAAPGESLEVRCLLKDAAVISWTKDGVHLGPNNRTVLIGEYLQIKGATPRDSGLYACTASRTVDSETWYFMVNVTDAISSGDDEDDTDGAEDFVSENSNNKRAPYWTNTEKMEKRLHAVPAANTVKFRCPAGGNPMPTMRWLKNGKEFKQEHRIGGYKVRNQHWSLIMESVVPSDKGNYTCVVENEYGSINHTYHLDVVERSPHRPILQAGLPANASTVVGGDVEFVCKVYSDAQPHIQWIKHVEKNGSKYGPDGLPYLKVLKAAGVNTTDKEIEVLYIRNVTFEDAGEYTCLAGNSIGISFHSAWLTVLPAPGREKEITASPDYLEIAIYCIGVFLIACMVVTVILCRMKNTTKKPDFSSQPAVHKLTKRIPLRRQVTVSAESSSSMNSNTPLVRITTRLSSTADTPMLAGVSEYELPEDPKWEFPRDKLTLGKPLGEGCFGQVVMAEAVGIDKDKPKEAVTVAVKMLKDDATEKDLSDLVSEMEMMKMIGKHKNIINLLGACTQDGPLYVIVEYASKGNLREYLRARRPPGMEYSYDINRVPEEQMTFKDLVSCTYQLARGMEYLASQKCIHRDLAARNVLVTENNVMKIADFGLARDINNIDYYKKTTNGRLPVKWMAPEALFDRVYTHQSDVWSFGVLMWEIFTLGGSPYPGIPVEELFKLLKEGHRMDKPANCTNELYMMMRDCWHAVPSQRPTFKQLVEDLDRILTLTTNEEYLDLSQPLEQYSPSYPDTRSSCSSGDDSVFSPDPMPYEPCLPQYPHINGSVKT
Sequence of FGFR3 enzyme (P22607 23-806): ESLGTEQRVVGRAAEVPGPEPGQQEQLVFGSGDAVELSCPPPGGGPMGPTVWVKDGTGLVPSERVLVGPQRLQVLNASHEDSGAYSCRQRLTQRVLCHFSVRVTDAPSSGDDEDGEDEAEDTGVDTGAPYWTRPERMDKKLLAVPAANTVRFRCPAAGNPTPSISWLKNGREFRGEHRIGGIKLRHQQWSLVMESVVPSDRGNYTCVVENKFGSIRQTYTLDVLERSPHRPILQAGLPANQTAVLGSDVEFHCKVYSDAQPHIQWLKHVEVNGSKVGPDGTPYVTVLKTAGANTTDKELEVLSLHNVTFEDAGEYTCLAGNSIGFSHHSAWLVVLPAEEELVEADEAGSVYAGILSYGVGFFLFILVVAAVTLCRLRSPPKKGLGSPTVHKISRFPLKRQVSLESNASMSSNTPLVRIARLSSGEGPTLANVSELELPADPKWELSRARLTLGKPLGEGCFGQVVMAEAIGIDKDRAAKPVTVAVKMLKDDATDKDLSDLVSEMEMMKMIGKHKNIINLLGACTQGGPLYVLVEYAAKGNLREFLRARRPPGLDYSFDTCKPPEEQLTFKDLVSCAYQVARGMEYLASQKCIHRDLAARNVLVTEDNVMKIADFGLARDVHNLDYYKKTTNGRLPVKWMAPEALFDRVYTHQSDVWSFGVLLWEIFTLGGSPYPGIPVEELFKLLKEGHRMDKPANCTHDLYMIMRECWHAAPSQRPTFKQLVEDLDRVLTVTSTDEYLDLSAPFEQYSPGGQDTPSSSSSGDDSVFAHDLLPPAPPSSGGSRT

Consider `COc1cc(OC)c(F)c(N2Cc3cnc(-c4nn(C)cc4C#N)cc3C3(CC3)C2=O)c1F` [Example 172, 3-(2′-(2,6-difluoro-3,5-dimethoxyphenyl)-3′-oxo-2′,3′-dihydro-1′H-spiro[cyclopropane-1,4′-[2,7]naphthyridine]-6′-yl)-1-methyl-1H-pyrazole-4-carbonitrile], for which, on FGFR4 (pre-incubated for 4 hours), the “FGFR1/FGFR4 IC50 ratio” value is greater than 50. Moreover, on FGFR4 (pre-incubated for 4 hours), the “FGFR2/FGFR4 IC50 ratio” value is given as greater than 25. At FGFR4 (pre-incubated for 4 hours), the “FGFR3/FGFR4 IC50 ratio” value was greater than 10. Besides, the IC50 (in general, the midpoint of a concentration-inhibition curve) on FGFR4 (pre-incubated for 4 hours) is 10 to 30 nM; at FGFR3 enzyme (pre-incubated for 4 hours), greater than 200 nM; on FGFR1 (setting [1]), greater than 200 nM; against FGFR2 (pre-incubated for 4 hours), greater than 200 nM.
As to `COc1cc(OC)c(F)c(N2Cc3cnc(-c4nn(CC5CCOCC5)cc4C#N)cc3C3(CC3)C2=O)c1F` [Example 173, 3-(2′-(2,6-difluoro-3,5-dimethoxyphenyl)-3′-oxo-2′,3′-dihydro-1′H-spiro[cyclopropane-1,4′-[2,7]naphthyridine]-6′-yl)-1-((tetrahydro-2H-pyran-4-yl)methyl)-1H-pyrazole-4-carbonitrile], at FGFR4 (pre-incubated for 4 hours), the “FGFR1/FGFR4 IC50 ratio” value is on record as greater than 100, the “FGFR2/FGFR4 IC50 ratio” value is on record as greater than 100, the “FGFR3/FGFR4 IC50 ratio” value is greater than 50 and the IC50 was 10 to 30 nM. Further, the IC50 at FGFR3 enzyme (pre-incubated for 4 hours) is greater than 200 nM. For the same compound, the IC50 at FGFR1 (setting [1]) is greater than 200 nM. On FGFR2 (pre-incubated for 4 hours), this compound displayed an IC50 greater than 200 nM.
As to `COc1cc(OC)c(F)c(N2Cc3cnc(-c4nn(CC#N)cc4C#N)cc3C3(CC3)C2=O)c1F` [Example 174, 1-(cyanomethyl)-3-(2′-(2,6-difluoro-3,5-dimethoxyphenyl)-3′-oxo-2′,3′-dihydro-1′H-spiro[cyclopropane-1,4′-[2,7]naphthyridine]-6′-yl)-1H-pyrazole-4-carbonitrile], the “FGFR1/FGFR4 IC50 ratio” value at FGFR4 (pre-incubated for 4 hours) is listed as greater than 100. Besides, on FGFR4 (pre-incubated for 4 hours), the “FGFR2/FGFR4 IC50 ratio” value is on record as greater than 10. Also, the “FGFR3/FGFR4 IC50 ratio” value at FGFR4 (pre-incubated for 4 hours) is recorded as greater than 25. For the same compound, the IC50 at FGFR4 (pre-incubated for 4 hours) was 10 to 30 nM; at FGFR3 enzyme (pre-incubated for 4 hours), greater than 200 nM; at FGFR1 (setting [1]) it was greater than 200 nM; against FGFR2 (pre-incubated for 4 hours), greater than 200 nM.
For the compound `CCN1C(=O)N(c2c(F)c(OC)cc(OC)c2F)Cc2cnc(-c3ccc(C(=O)NC4CC4)nc3)cc21` [Example 176, N-cyclopropyl-5-(3-(2,6-difluoro-3,5-dimethoxyphenyl)-1-ethyl-2-oxo-1,2,3,4-tetrahydropyrido[4,3-d]pyrimidin-7-yl)picolinamide], the IC50 is 10 to 30 nM at FGFR4 (pre-incubated for 4 hours), less than 10 nM on FGFR3 enzyme (pre-incubated for 4 hours), 10 to 30 nM against FGFR1 (setting [2]) and less than 10 nM against FGFR2 (pre-incubated for 4 hours). Also, at FGFR3 enzyme (pre-incubated for 4 hours), the “FGFR1/FGFR3 IC50 ratio” value is recorded as greater than 10. Moreover, the “FGFR4/FGFR3 IC50 ratio” value at FGFR3 enzyme (pre-incubated for 4 hours) is listed as greater than 5.
Take `CCN1C(=O)N(c2c(F)c(OC)cc(OC)c2F)Cc2cnc(-c3ccc(C(=O)NCCO)nc3)cc21` [Example 177, 5-(3-(2,6-difluoro-3,5-dimethoxyphenyl)-1-ethyl-2-oxo-1,2,3,4-tetrahydropyrido[4,3-d]pyrimidin-7-yl)-N-(2-hydroxyethyl)picolinamide]: the IC50 was 10 to 30 nM at FGFR4 (pre-incubated for 4 hours), less than 10 nM on FGFR3 enzyme (pre-incubated for 4 hours), 10 to 30 nM on FGFR1 (setting [2]) and less than 10 nM against FGFR2 (pre-incubated for 4 hours). The “FGFR1/FGFR3 IC50 ratio” value on FGFR3 enzyme (pre-incubated for 4 hours) was greater than 5. Moreover, the “FGFR4/FGFR3 IC50 ratio” value at FGFR3 enzyme (pre-incubated for 4 hours) is on record as greater than 10.
Consider `CCN1C(=O)N(c2c(F)c(OC)cc(OC)c2F)Cc2cnc(-c3ccc(CC#N)cc3)cc21` [Example 180, 2-(4-(3-(2,6-difluoro-3,5-dimethoxyphenyl)-1-ethyl-2-oxo-1,2,3,4-tetrahydropyrido[4,3-d]pyrimidin-7-yl)phenyl)acetonitrile], for which the IC50 on FGFR4 (pre-incubated for 4 hours) was 10 to 30 nM; at FGFR3 enzyme (pre-incubated for 4 hours), less than 10 nM; against FGFR1 (setting [2]) it was 30 to 200 nM; against FGFR2 (pre-incubated for 4 hours), less than 10 nM. Besides, at FGFR3 enzyme (pre-incubated for 4 hours), the “FGFR1/FGFR3 IC50 ratio” value is given as greater than 5. For the same compound, the “FGFR4/FGFR3 IC50 ratio” value at FGFR3 enzyme (pre-incubated for 4 hours) is reported as greater than 5.
On to `CCN1C(=O)N(c2c(F)c(OC)cc(OC)c2F)Cc2cnc(-c3ccc(C4(C#N)CCC4)cc3)cc21` [Example 181, 1-(4-(3-(2,6-difluoro-3,5-dimethoxyphenyl)-1-ethyl-2-oxo-1,2,3,4-tetrahydropyrido[4,3-d]pyrimidin-7-yl)phenyl)cyclobutanecarbonitrile], for which the IC50 against FGFR4 (pre-incubated for 4 hours) is 30 to 200 nM; on FGFR3 enzyme (pre-incubated for 4 hours), less than 10 nM; against FGFR1 (setting [2]), 30 to 200 nM; against FGFR2 (pre-incubated for 4 hours) it was less than 10 nM. Further, at FGFR3 enzyme (pre-incubated for 4 hours), the “FGFR1/FGFR3 IC50 ratio” value was greater than 5. In addition, the “FGFR4/FGFR3 IC50 ratio” value at FGFR3 enzyme (pre-incubated for 4 hours) is greater than 10.
For `CCN1C(=O)N(c2c(F)c(OC)cc(OC)c2F)Cc2cnc(-c3ccc(C4(C#N)CC4)cc3)cc21` [Example 183, 1-(4-(3-(2,6-difluoro-3,5-dimethoxyphenyl)-1-ethyl-2-oxo-1,2,3,4-tetrahydropyrido[4,3-d]pyrimidin-7-yl)phenyl)cyclopropanecarbonitrile], the IC50 at FGFR4 (pre-incubated for 4 hours) was 30 to 200 nM; on FGFR3 enzyme (pre-incubated for 4 hours) it was less than 10 nM; at FGFR1 (setting [2]), 10 to 30 nM; at FGFR2 (pre-incubated for 4 hours) it was less than 10 nM. Besides, the “FGFR1/FGFR3 IC50 ratio” value on FGFR3 enzyme (pre-incubated for 4 hours) was greater than 3. Besides, at FGFR3 enzyme (pre-incubated for 4 hours), the “FGFR4/FGFR3 IC50 ratio” value was greater than 10.
With `CCN1C(=O)N(c2c(F)c(OC)cc(OC)c2F)Cc2cnc(-c3ccc(C(N)=O)nc3)cc21` [Example 184, 5-(3-(2,6-difluoro-3,5-dimethoxyphenyl)-1-ethyl-2-oxo-1,2,3,4-tetrahydropyrido[4,3-d]pyrimidin-7-yl)picolinamide], the IC50 against FGFR4 (pre-incubated for 4 hours) was 10 to 30 nM; on FGFR3 enzyme (pre-incubated for 4 hours) it was less than 10 nM; against FGFR1 (setting [2]), 10 to 30 nM; on FGFR2 (pre-incubated for 4 hours), less than 10 nM. The “FGFR1/FGFR3 IC50 ratio” value on FGFR3 enzyme (pre-incubated for 4 hours) was greater than 5. Besides, the “FGFR4/FGFR3 IC50 ratio” value at FGFR3 enzyme (pre-incubated for 4 hours) is listed as greater than 5.
On to `COc1cc(OC)c(F)c(N2Cc3cnc(-c4ccncc4)cc3C3(CC3)C2=O)c1F` [Example 185, 2′-(2,6-difluoro-3,5-dimethoxyphenyl)-6′-(pyridin-4-yl)-1′H-spiro[cyclopropane-1,4′-[2,7]naphthyridin]-3′(2′H)-one], for which the IC50 at FGFR4 (pre-incubated for 4 hours) was 10 to 30 nM; on FGFR3 enzyme (pre-incubated for 4 hours), less than 10 nM; against FGFR1 (setting [2]) it was 10 to 30 nM; against FGFR2 (pre-incubated for 4 hours), less than 10 nM. Also, on FGFR3 enzyme (pre-incubated for 4 hours), the “FGFR1/FGFR3 IC50 ratio” value was greater than 3. Besides, the “FGFR4/FGFR3 IC50 ratio” value at FGFR3 enzyme (pre-incubated for 4 hours) is listed as greater than 3.
For the compound `COc1cc(OC)c(F)c(N2Cc3cnc(-c4cnn(C)c4)cc3C3(CC3)C2=O)c1F` [Example 186, 2′-(2,6-difluoro-3,5-dimethoxyphenyl)-6′-(1-methyl-1H-pyrazol-4-yl)-1′,2′-dihydro-3′H-spiro[cyclopropane-1,4′-[2,7]naphthyridin]-3′-one], the IC50 on FGFR4 (setting [3]) was less than 10 nM; against FGFR4 (pre-incubated for 4 hours), less than 10 nM; on FGFR3 enzyme (setting [3]), less than 10 nM; at FGFR3 enzyme (pre-incubated for 4 hours) it was less than 10 nM; at FGFR1 (read-out: FGFR1 IC50, pre-incubated for 5 to 10 minutes) it was less than 10 nM; at FGFR1 (setting [1]) it was less than 10 nM. The IC50 against FGFR2 (setting [3]) and against FGFR2 (pre-incubated for 4 hours) was less than 10 nM throughout. Besides, the “FGFR1/FGFR3 IC50 ratio” value at FGFR3 enzyme (pre-incubated for 4 hours) is reported as greater than 5. Further, the “FGFR4/FGFR3 IC50 ratio” value on FGFR3 enzyme (pre-incubated for 4 hours) is on record as greater than 5.
Regarding `COc1cc(OC)c(F)c(N2Cc3cnc(-c4ccc(C5(C#N)CCC5)nc4)cc3N(Cc3nnc(C)o3)C2=O)c1F` [Example 187, 1-(5-{3-(2,6-difluoro-3,5-dimethoxyphenyl)-1-[(5-methyl-1,3,4-oxadiazol-2-yl)methyl]-2-oxo-1,2,3,4-tetrahydropyrido[4,3-d]pyrimidin-7-yl}pyridin-2-yl)cyclobutanecarbonitrile], the IC50 was 30 to 200 nM against FGFR4 (setting [3]); 30 to 200 nM against FGFR4 (pre-incubated for 4 hours); less than 10 nM at FGFR3 enzyme (setting [3]); less than 10 nM at FGFR3 enzyme (pre-incubated for 4 hours); 10 to 30 nM against FGFR1 (FGFR1 IC50 (nM), pre-incubated for 5 to 10 minutes); 30 to 200 nM against FGFR1 (setting [2]). The IC50 at FGFR2 (setting [3]) and on FGFR2 (pre-incubated for 4 hours) was less than 10 nM each time. Further, the “FGFR1/FGFR3 IC50 ratio” value on FGFR3 enzyme (pre-incubated for 4 hours) is listed as greater than 10. Further, the “FGFR4/FGFR3 IC50 ratio” value at FGFR3 enzyme (pre-incubated for 4 hours) is reported as greater than 10.
As for `COc1cc(OC)c(F)c(N2Cc3cnc(-c4ccc(C5(C#N)CCC5)nc4)cc3N(c3cnn(C)c3)C2=O)c1F` [Example 188, 1-{5-[3-(2,6-difluoro-3,5-dimethoxyphenyl)-1-(1-methyl-1H-pyrazol-4-yl)-2-oxo-1,2,3,4-tetrahydropyrido[4,3-d]pyrimidin-7-yl]pyridin-2-yl}cyclobutanecarbonitrile], the IC50 on FGFR4 (pre-incubated for 4 hours) lay in the range of 30 to 200 nM; on FGFR3 enzyme (pre-incubated for 4 hours), 10 to 30 nM; against FGFR1 (setting [2]), 30 to 200 nM; against FGFR2 (pre-incubated for 4 hours) it was 10 to 30 nM. The “FGFR1/FGFR3 IC50 ratio” value on FGFR3 enzyme (pre-incubated for 4 hours) is greater than 5. Besides, the “FGFR4/FGFR3 IC50 ratio” value at FGFR3 enzyme (pre-incubated for 4 hours) is on record as greater than 5.
